The values below come from patent publication US11667636B2, “Modulators of Mas-related G-protein receptor X2 and related products and methods” (Escient Pharmaceuticals, Inc., priority 2020, dated 2023).

For this assay, the target named is T1, human MRGPRX2 (Homo sapiens, UniProt Q96LB1).
T1 construct: expressed in transfected cells
T1 sequence (Q96LB1 1-330): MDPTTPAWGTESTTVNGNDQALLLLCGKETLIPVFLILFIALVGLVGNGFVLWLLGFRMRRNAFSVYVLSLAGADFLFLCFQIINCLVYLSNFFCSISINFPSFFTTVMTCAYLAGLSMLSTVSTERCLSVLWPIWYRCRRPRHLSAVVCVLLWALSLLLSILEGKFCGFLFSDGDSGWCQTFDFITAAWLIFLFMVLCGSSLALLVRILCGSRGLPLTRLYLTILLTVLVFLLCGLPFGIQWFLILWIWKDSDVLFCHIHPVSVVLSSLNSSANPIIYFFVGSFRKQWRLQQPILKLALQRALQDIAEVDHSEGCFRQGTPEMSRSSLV
Kind of assay: MRGPRX2 Activity: IP-One HTRF antagonist assay in CHO cells stably expressing human MRGPRX2, versus Cortistatin-14. Format: cell-based. The conditions noted are these: versus 0.3 uM Cortistatin-14 agonist, IP-1 HTRF, read-out: MRGPR2 Antagonist Activity. How it is done: CHO cells stably transfected to express human MRGPRX2 were maintained in an incubator at 37° C. with 5% CO2 and grown in F12 (HAM) media with 10% fetal bovine serum (FBS), 1% Glutamax, 1% penicillin/streptomycin, 800 μg/mL Geneticin (G418), and 300 μg/mL Hygromycin B. Cells were plated in a 384-well assay plate at 20,000 cells per well in 12 μL of Opti-MEM and kept in an incubator overnight. On the day of the assay, compounds solubilized at 10 mM in DMSO were added as a 10-point curve (30 uM final top concentration with 1:3 serial dilutions) using a Tecan D300E digital dispenser. Agonists were diluted in assay buffer (final concentrations of 5.7 mM Tris-HCl, 43 mM NaCl, 50 mM LiCl, pH=8) and 2 μL of the agonist Cortistatin-14 (CPC Scientific, catalog CORT-002) are added to each well. Final concentrations of agonists were 0.3 μM Cortistatin-14. Final concentrations of DMSO were kept consistent across the plate. Plates were incubated in the dark for 1 hr at 37° C. and then for 1 hr at room temperature. IP-1 standards and HTRF detection reagents were added according to the IP-One-Gq Kit purchased from Cisbio (part number 62IPAPEJ) and incubated in the dark for 1 hr at room temperature. The plate was read on a Molecular Devices SpectraMax iD5 plate reader. The HTRF ratio was calculated from the raw data and graphed using GraphPad Prism to calculate an IC50 value for each compound.
The activity ranges are denoted as follows: “+++++” denotes antagonist activity <50 nM; “++++” denotes antagonist activity between 51 and 100 nM; “+++” denotes activity between 101 and 500 nM; “++” denotes activity between 501 and 1000 nM; and “+” denotes activity >1000 nM
For `O=C(N[C@H]1CC[C@@H](Nc2cccc3nc(C(F)(F)F)cn23)CC1)c1ccc(N2CCOCC2)cc1` [2-8], the IC50 is under 50 nM.
To `COc1ccc(C(=O)N[C@H]2CC[C@@H](Nc3cccc4nc(C(F)F)cn34)CC2)c(Cl)c1` [2-148] belongs 51 to 100 nM; to `O=C(N[C@H]1CC[C@@H](Nc2cccc3nc(C(F)(F)F)cn23)CC1)c1ccc(OCCF)cc1` [2-230], under 50 nM.
Take `Nc1nn(CC(F)(F)F)cc1C(=O)N[C@H]1CC[C@@H](Nc2cccc3nc(C(F)(F)F)cn23)CC1` [Example 7, 3-amino-1-(2,2,2-trifluoroethyl)-N-[4-[[2-(trifluoromethyl)imidazo[1,2-a]pyridin-5-yl]amino]cyclohexyl]pyrazole-4-carboxamide]: the IC50 is under 50 nM.
On to `O=C(N[C@H]1CC[C@@H](Nc2cccc3nc(C(F)F)cn23)CC1)c1c[nH]nc1NCC(F)F` [2-194], for which the IC50 is under 50 nM.
With `Cc1n[nH]c2c(C(=O)N[C@H]3CC[C@@H](Nc4cccc5nc(C(F)(F)F)cn45)CC3)cccc12` [2-183], the IC50 was under 50 nM.
The same measure for `O=C(N[C@H]1CC[C@@H](Nc2cccc3nc(C(F)(F)F)cn23)CC1)c1c[nH]nc1Cl` [2-176]: under 50 nM; for `O=C(N[C@H]1CC[C@@H](Nc2cccc3nc(C(F)(F)F)cn23)CC1)c1cn(CC(F)(F)F)nc1C(F)F` [Example 9, 3-(difluoromethyl)-1-(2,2,2-trifluoroethyl)-N-[4-[[2-(trifluoromethyl)imidazo[1,2-a]pyridin-5-yl]amino]cyclohexyl]pyrazole-4-carboxamide]: under 50 nM; for `O=C(N[C@H]1CC[C@@H](Nc2cccc3nc(C(F)(F)F)cn23)CC1)c1cn(CC(F)F)nc1Cl` [Example 11, 3-chloro-1-(2,2-difluoroethyl)-N-((1 s,4s)-4-((2-(trifluoromethyl)imidazo[1,2-a]pyridin-5-yl)amino)cyclohexyl)-1H-pyrazole-4-carboxamide]: under 50 nM.
For the molecule `O=C(N[C@H]1CC[C@@H](Nc2cccc3nc(C(F)(F)F)cn23)CC1)c1ccccc1NCC(F)F` [2-188], the IC50 was under 50 nM.
For `Cn1cc(C(=O)N[C@H]2CC[C@@H](Nc3cccc4nc(C(F)F)cn34)CC2)c(C(F)F)n1` [2-286], the IC50 lay in the range of 101 to 500 nM.
`O=C(N[C@H]1CC[C@@H](Nc2cccc3nc(C(F)(F)F)cn23)CC1)c1ccc(F)cc1` [2-157]: the IC50 is under 50 nM.
Regarding `Cc1nc2cccc(C(=O)N[C@H]3CC[C@@H](Nc4cccc5nc(C(F)(F)F)cn45)CC3)c2s1` [2-169], the IC50 is under 50 nM.
Turning to `CCn1nccc1C(=O)N[C@H]1CC[C@@H](Nc2cccc3sc(C(F)(F)F)cc23)CC1` [2-3], the IC50 fell in the range of 101 to 500 nM.
Consider `N#Cc1cc2c(N[C@H]3CC[C@@H](NC(=O)c4ccc(F)cc4)CC3)cccc2s1` [1-20], for which the IC50 was in the range of 51 to 100 nM.
The same measure for `O=C(N[C@H]1CC[C@@H](Nc2cccc3nc(C(F)(F)F)cn23)CC1)c1noc2ccccc12` [2-290]: 101 to 500 nM.
For `O=C(N[C@H]1CC[C@@H](Nc2cccc3nc(C(F)(F)F)cn23)CC1)c1ccn2cncc2c1` [2-163], the IC50 is under 50 nM.
On to `Cn1ncc(C(=O)N[C@H]2CC[C@@H](Nc3cccc4nc(C(F)(F)F)cn34)CC2)c1C1CC1` [2-245], for which the IC50 lay within 101 to 500 nM.
With `O=C(N[C@H]1CC[C@@H](Nc2cccc3nc(C(F)F)cn23)CC1)c1ccc(F)cc1Cl` [2-149], the IC50 fell in the range of 101 to 500 nM.
As for `CNc1ccc(C(=O)N[C@H]2CC[C@@H](Nc3cccc4nc(C#N)cn34)CC2)cc1` [2-259], the IC50 lay within 101 to 500 nM.
Consider `O=C(N[C@H]1CC[C@@H](Nc2cccc3nc(C(F)F)cn23)CC1)c1cncs1` [2-147], for which the IC50 was 101 to 500 nM.
In the case of `O=C(N[C@H]1CC[C@@H](Nc2cccc3nc(C(F)(F)F)cn23)CC1)c1ccncc1` [2-162], the IC50 fell in the range of 101 to 500 nM.
The same measure for `O=C(N[C@H]1CC[C@@H](Nc2cccc3nc(C(F)(F)F)cn23)CC1)c1cn(CC(F)F)nc1C(F)F` [Example 8, 1-(2,2-difluoroethyl)-3-(difluoromethyl)-N-[4-[[2-(trifluoromethyl)imidazo[1,2-a]pyridin-5-yl]amino]cyclohexyl]pyrazole-4-carboxamide]: under 50 nM; for `O=C(N[C@H]1CC[C@@H](Nc2cccc3nc(C(F)(F)F)cn23)CC1)c1cn(C(F)F)nc1Cl` [2-297]: under 50 nM; for `CN(CC(F)F)c1ccc(C(=O)N[C@H]2CC[C@@H](Nc3cccc4nc(C(F)(F)F)cn34)CC2)cc1` [2-181]: under 50 nM.
To `O=C(N[C@H]1CC[C@@H](Nc2cccc3nc(C(F)F)cn23)CC1)c1cccc2[nH]c(C(F)F)nc12` [2-151] belongs 101 to 500 nM.
In the case of `COc1cccc(C(=O)N[C@H]2CC[C@@H](Nc3cccc4nc(C#N)cn34)CC2)c1` [2-260], the IC50 fell in the range of 101 to 500 nM.
For the molecule `O=C(N[C@H]1CC[C@@H](Nc2cccc3nc(C(F)(F)F)cn23)CC1)c1cnc2nccn2c1` [2-125], the IC50 fell in the range of 101 to 500 nM.
As to `O=C(N[C@H]1CC[C@@H](Nc2cccc3nc(C(F)(F)F)cn23)CC1)c1ccc(NCC(F)(F)F)cc1` [2-23], the IC50 was under 50 nM.
As for `Cc1cc(C(=O)N[C@H]2CC[C@@H](Nc3cccc4nc(C(F)F)cn34)CC2)cn1C(F)F` [2-221], the IC50 was under 50 nM.
To `COc1ccc(C(=O)N[C@H]2CC[C@@H](Nc3cccc4nc(C(F)(F)F)sc34)CC2)cc1` [1-22] belongs 51 to 100 nM.
`O=C(N[C@H]1CC[C@@H](Nc2cccc3nc(C(F)(F)F)cn23)CC1)c1ccc2nccn2c1` [2-165]: the IC50 was under 50 nM.
To `Cc1n[nH]cc1C(=O)N[C@H]1CC[C@@H](Nc2cccc3nc(C(F)(F)F)cn23)CC1` [2-138] belongs under 50 nM; to `CC(C)(O)Cn1cc(C(=O)N[C@H]2CC[C@@H](Nc3cccc4nc(C(F)F)cn34)CC2)c(Cl)n1` [2-283], 101 to 500 nM.
For the molecule `COc1ccc(C(=O)N[C@@H]2CCC[C@H](Nc3cc(Cl)cc4nc(C(F)(F)F)cn34)C2)cc1` [1-30], the IC50 is 51 to 100 nM.
For the molecule `CCn1ncc(C(=O)N[C@H]2CC[C@@H](Nc3cccc4nc(C(F)(F)F)cn34)CC2)c1Cl` [2-292], the IC50 lay within 101 to 500 nM.
Turning to `O=C(N[C@H]1CC[C@@H](Nc2cccc3nc(C(F)F)cn23)CC1)c1cccc2cn[nH]c12` [2-193], the IC50 is under 50 nM.
To `CN(C)c1ccc(C(=O)N[C@H]2CC[C@@H](Nc3cccc4nc(C(F)(F)F)cn34)CC2)cc1` [2-158] belongs under 50 nM.
In the case of `COc1ccc(C(=O)N[C@H]2CC[C@@H](Nc3cccc4nn(C(F)(F)F)cc34)CC2)cc1` [1-21], the IC50 was in the range of 51 to 100 nM.
`O=C(N[C@H]1CC[C@@H](Nc2cccc3nc(C(F)(F)F)cn23)CC1)c1ccn(CC(F)F)n1` [2-135]: the IC50 is under 50 nM.
Take `O=C(N[C@H]1CC[C@@H](Nc2cccc3nc(C(F)F)cn23)CC1)c1nn2ccccc2c1NCC(F)F` [2-269]: the IC50 fell in the range of 101 to 500 nM.
With `O=C(N[C@H]1CC[C@@H](Nc2cccc3nc(C(F)(F)F)cn23)CC1)c1ccn2ccnc2c1` [2-208], the IC50 is 51 to 100 nM.
In the case of `CCCn1cc(C(=O)N[C@H]2CC[C@@H](Nc3cccc4nc(C(F)F)cn34)CC2)cn1` [2-255], the IC50 lay in the range of 101 to 500 nM.
`O=C(N[C@H]1CC[C@@H](Nc2cccc3nc(C(F)F)cn23)CC1)c1ccc(F)nc1` [2-254]: the IC50 is 101 to 500 nM.
Take `Cn1cc(C(=O)N[C@H]2CC[C@@H](Nc3cccc4nc(C(F)(F)F)cn34)CC2)c(N)n1` [2-246]: the IC50 is under 50 nM.
With `O=C(N[C@H]1CC[C@@H](Nc2cccc3nc(C(F)(F)F)cn23)CC1)c1ccc(NCC(F)F)cc1` [2-180], the IC50 is under 50 nM.
The same measure for `CCn1cc(C(=O)N[C@H]2CC[C@@H](Nc3cccc4nc(C(F)(F)F)cn34)CC2)c(Cl)n1` [2-293]: under 50 nM.
To `O=C(N[C@H]1CC[C@@H](Nc2cccc3nc(C(F)(F)F)cn23)CC1)c1cn(CC(F)(F)F)nc1Cl` [Example 12, 3-chloro-1-(2,2,2-trifluoroethyl)-N-((1s,4s)-4-((2-(trifluoromethyl)imidazo[1,2-a]pyridin-5-yl)amino)cyclohexyl)-1H-pyrazole-4-carboxamide] belongs under 50 nM; to `Cn1cc(C(=O)N[C@H]2CC[C@@H](Nc3cccc4nc(C(F)(F)F)cn34)CC2)c2c(Cl)cccc21` [2-291], under 50 nM.
Consider `CCc1cc(C(=O)N[C@H]2CC[C@@H](Nc3cccc4nc(C(F)(F)F)cn34)CC2)nn1CC` [2-190], for which the IC50 lay in the range of 101 to 500 nM.
For the molecule `O=C(N[C@H]1CC[C@@H](Nc2cccc3nc(C(F)(F)F)cn23)CC1)c1cnc[nH]1` [2-11], the IC50 was in the range of 101 to 500 nM.
